According to ChEMBL document CHEMBL3112491, “3-(5-)-Amino-o-diarylisoxazoles: regioselective synthesis and antitubulin activity” (2014):
Active and inactive are the calls of the source. The rule behind the calls is not given here.

Assays:
[1] = tested on: Paracentrotus lividus; assay: Antimitotic activity in sea urchin fertilized egg assessed as cleavage arrest treated at 8 to 20 mins post-fertilization measured at 2.5 to 5.5 hrs post-fertilization; type: functional
[2] = tested on: Paracentrotus lividus; assay: Microtubule destabilizing activity in sea urchin free-swimming blastula assessed as embryo spinning treated at 9 to 10 hrs post-fertilization measured after 0.15 to 15 hrs; type: functional
[3] = tested on: Paracentrotus lividus; assay: Antimitotic activity in sea urchin fertilized egg assessed as cleavage alteration treated at 8 to 20 mins post-fertilization measured at 2.5 to 5.5 hrs post-fertilization; type: functional
[4] = tested on: Paracentrotus lividus; assay: Microtubule destabilizing activity in sea urchin free-swimming blastula assessed as embryo spinning up to 4 uM treated at 9 to 10 hrs post-fertilization measured after 0.15 to 15 hrs; type: functional, organism-based
[5] = tested on: HOP-62; assay: Growth inhibition of human HOP62 cells after 48 hrs by sulforhodamine B assay; type: functional; conditions: HOP-62, 48 h
[6] = Growth inhibition of human RXF393 cells after 48 hrs by sulforhodamine B assay; type: functional; conditions: RXF 393, 48 h
[7] = tested on: SF-268; assay: Growth inhibition of human SF268 cells after 48 hrs by sulforhodamine B assay; type: functional; conditions: SF-268, 48 h
[8] = tested on: TK-10; assay: Growth inhibition of human TK10 cells after 48 hrs by sulforhodamine B assay; type: functional; conditions: TK-10, 48 h
[9] = tested on: OVCAR-3; assay: Growth inhibition of human OVCAR3 cells after 48 hrs by sulforhodamine B assay; type: functional; conditions: OVCAR-3, 48 h
[10] = tested on: KM12; assay: Growth inhibition of human KM12 cells after 48 hrs by sulforhodamine B assay; type: functional; conditions: KM12, 48 h
[11] = tested on: HL-60(TB); assay: Growth inhibition of human HL-60(TB) cells after 48 hrs by sulforhodamine B assay; type: functional; conditions: HL-60, 48 h
[12] = tested on: SR; assay: Growth inhibition of human SR cells after 48 hrs by sulforhodamine B assay; type: functional
[13] = tested on: OVCAR-8; assay: Growth inhibition of human OVCAR8 cells after 48 hrs by sulforhodamine B assay; type: functional; conditions: OVCAR-8, 48 h
[14] = tested on: SK-MEL-28; assay: Growth inhibition of human SK-MEL-28 cells after 48 hrs by sulforhodamine B assay; type: functional; conditions: SK-MEL-28, 48 h
[15] = Growth inhibition of human HCC2998 cells after 48 hrs by sulforhodamine B assay; type: functional; conditions: HCC 2998, 48 h
[16] = tested on: HCT-116; assay: Growth inhibition of human HCT116 cells after 48 hrs by sulforhodamine B assay; type: functional; conditions: HCT-116, 48 h
[17] = tested on: NCI-H460; assay: Growth inhibition of human NCI-H460 cells after 48 hrs by sulforhodamine B assay; type: functional; conditions: NCI-H460, 48 h
[18] = tested on: LOX IMVI; assay: Growth inhibition of human LOXIMVI cells after 48 hrs by sulforhodamine B assay; type: functional
[19] = Growth inhibition of human OVCAR5 cells after 48 hrs by sulforhodamine B assay; type: functional; conditions: OVCAR-5, 48 h
[20] = tested on: SK-OV-3; assay: Growth inhibition of human SKOV3 cells after 48 hrs by sulforhodamine B assay; type: functional; conditions: SK-OV-3, 48 h
[21] = tested on: SN12C; assay: Growth inhibition of human SN12C cells after 48 hrs by sulforhodamine B assay; type: functional
[22] = tested on: SK-MEL-2; assay: Growth inhibition of human SK-MEL-2 cells after 48 hrs by sulforhodamine B assay; type: functional; conditions: SK-MEL-2, 48 h
[23] = tested on: SW-620; assay: Growth inhibition of human SW620 cells after 48 hrs by sulforhodamine B assay; type: functional; conditions: SW-620, 48 h
[24] = tested on: CCRF-CEM; assay: Growth inhibition of human CCRF-CEM cells after 48 hrs by sulforhodamine B assay; type: functional
[25] = Growth inhibition of human SF539 cells after 48 hrs by sulforhodamine B assay; type: functional; conditions: SF-539, 48 h
[26] = tested on: HCT-15; assay: Growth inhibition of human HCT15 cells after 48 hrs by sulforhodamine B assay; type: functional; conditions: HCT-15, 48 h
[27] = tested on: SF-295; assay: Growth inhibition of human SF295 cells after 48 hrs by sulforhodamine B assay; type: functional; conditions: SF-295, 48 h
[28] = tested on: SNB-19; assay: Growth inhibition of human SNB19 cells after 48 hrs by sulforhodamine B assay; type: functional; conditions: SNB-19, 48 h
[29] = tested on: UACC-62; assay: Growth inhibition of human UACC62 cells after 48 hrs by sulforhodamine B assay; type: functional; conditions: UACC-62, 48 h
[30] = tested on: NCI-H522; assay: Growth inhibition of human NCI-H522 cells after 48 hrs by sulforhodamine B assay; type: functional; conditions: NCI-H522, 48 h
[31] = tested on: NCI-H226; assay: Growth inhibition of human NCI-H226 cells after 48 hrs by sulforhodamine B assay; type: functional; conditions: NCI-H226, 48 h
[32] = tested on: ACHN; assay: Growth inhibition of human ACHN cells after 48 hrs by sulforhodamine B assay; type: functional
[33] = Growth inhibition of human HOP92 cells after 48 hrs by sulforhodamine B assay; type: functional; conditions: HOP-92, 48 h
[34] = tested on: COLO 205; assay: Growth inhibition of human COLO205 cells after 48 hrs by sulforhodamine B assay; type: functional; conditions: COLO 205, 48 h
[35] = Growth inhibition of human EKVX cells after 48 hrs by sulforhodamine B assay; type: functional
[36] = tested on: U-251; assay: Growth inhibition of human U251 cells after 48 hrs by sulforhodamine B assay; type: functional; conditions: U-251, 48 h
[37] = tested on: RPMI-8226; assay: Growth inhibition of human RPMI8226 cells after 48 hrs by sulforhodamine B assay; type: functional; conditions: RPMI-8226, 48 h
[38] = tested on: 786-0; assay: Growth inhibition of human 786-0 cells after 48 hrs by sulforhodamine B assay; type: functional; conditions: 786-0, 48 h
[39] = tested on: NCI-H322M; assay: Growth inhibition of human NCI-H322M cells after 48 hrs by sulforhodamine B assay; type: functional
[40] = tested on: MOLT-4; assay: Growth inhibition of human MOLT4 cells after 48 hrs by sulforhodamine B assay; type: functional; conditions: MOLT-4, 48 h
[41] = tested on: A498; assay: Growth inhibition of human A498 cells after 48 hrs by sulforhodamine B assay; type: functional; conditions: A498, 48 h
[42] = Growth inhibition of human NCI-ADR-RES cells after 48 hrs by sulforhodamine B assay; type: functional
[43] = tested on: IGROV-1; assay: Growth inhibition of human IGROV1 cells after 48 hrs by sulforhodamine B assay; type: functional; conditions: IGROV-1, 48 h
[44] = tested on: HT-29; assay: Growth inhibition of human HT-29 cells after 48 hrs by sulforhodamine B assay; type: functional; conditions: HT-29, 48 h

COc1ccc(-c2noc(N)c2-c2ccc(Cl)cc2)cc1
EC [1]: >4 µM | EC [2]: >4 µM | EC [3]: >4 µM

COc1ccc(-c2onc(N)c2-c2cc(OC)c3c(c2OC)OCO3)cc1
EC [1]: >4 µM | EC [2]: >4 µM | EC [3]: >4 µM

COc1ccc(-c2c(-c3cc(OC)c(OC)c(OC)c3)noc2N(C(C)=O)C(C)=O)cc1
EC [1]: 0.2 µM | EC [2]: 1 µM | EC [3]: 0.05 µM

COc1ccc(-c2c(N)noc2-c2cc(OC)c3c(c2)OCCO3)cc1
EC [1]: 0.02 µM | EC [2]: 0.5 µM | EC [3]: 0.005 µM

COc1ccc(CCc2noc(-c3cc(OC)c4c(c3)OCCO4)n2)cc1
Activity [4]: inactive

COc1ccc(Cc2noc(-c3cc4c(c(OC)c3OC)OCO4)n2)cc1
Activity [4]: inactive

COc1ccc(-c2onc(NC(C)=O)c2-c2ccc(Cl)cc2)cc1
EC [1]: >4 µM | EC [2]: >4 µM | EC [3]: >4 µM

COc1ccc(Cc2noc(-c3cc(OC)c(OC)c(OC)c3)n2)cc1
Activity [4]: inactive

COc1ccc(Cc2noc(-c3cc(OC)c4c(c3)OCO4)n2)cc1
Activity [4]: inactive

COc1ccc(/C=C\c2cc(OC)c3c(c2)OCO3)cc1O [Combretastatin A-2]
EC [1]: 0.01 µM | EC [2]: 0.05 µM | EC [3]: 0.002 µM

COc1ccc(-c2c(-c3cc(OC)c4c(c3OC)OCO4)noc2N)cc1
EC [1]: >5 µM | EC [2]: >5 µM | EC [3]: 2 µM

COc1ccc(/C=C\c2cc(OC)c(OC)c(OC)c2)cc1O [COMBRETASTATIN A4]
GI50 [5]: 2.65 nM | EC [1]: 0.01 µM | GI50 [6]: 2.37 nM | GI50 [7]: 5.7 nM | GI50 [8]: 100 nM | GI50 [9]: 2.1 nM | GI50 [10]: 4.99 nM | GI50 [11]: 2.16 nM | GI50 [12]: 2.99 nM | GI50 [13]: 2.99 nM | GI50 [14]: 8.07 nM | GI50 [15]: 63.4 nM | GI50 [16]: 3.28 nM | GI50 [17]: 3.11 nM | GI50 [18]: 3.25 nM | GI50 [19]: 100 nM | GI50 [20]: 58.9 nM | GI50 [21]: 5.98 nM | GI50 [22]: 4.37 nM | GI50 [23]: 3.04 nM | GI50 [24]: 2.62 nM | GI50 [25]: 2.54 nM | GI50 [26]: 3.66 nM | GI50 [27]: 3.87 nM | GI50 [28]: 3.85 nM | GI50 [29]: 5.51 nM | GI50 [30]: 2.18 nM | GI50 [31]: 3.81 nM | EC [2]: 0.05 µM | GI50 [32]: 6.14 nM | GI50 [33]: 2.73 nM | GI50 [34]: 100 nM | GI50 [35]: 85.7 nM | GI50 [36]: 4.03 nM | GI50 [37]: 3.42 nM | GI50 [38]: 100 nM | GI50 [39]: 7.45 nM | GI50 [40]: 3.27 nM | GI50 [41]: 6.11 nM | EC [3]: 0.002 µM | GI50 [42]: 1 nM | GI50 [43]: 14.6 nM | GI50 [44]: 100 nM

COc1ccc(-c2c(-c3cc(OC)c4c(c3OC)OCO4)noc2N(C(C)=O)C(C)=O)cc1
EC [1]: 2 µM | EC [2]: 5 µM | EC [3]: 0.5 µM

COc1ccc(-c2onc(NC(C)=O)c2-c2ccc(OC)cc2)cc1
EC [1]: >4 µM | EC [2]: >4 µM | EC [3]: >4 µM

COc1ccc(-c2c(NC(C)=O)noc2-c2cc3c(c(OC)c2OC)OCO3)cc1
EC [1]: >4 µM | EC [2]: >4 µM | EC [3]: >4 µM

COc1ccc(-c2c(NC(C)=O)noc2-c2cc(OC)c(OC)c(OC)c2)cc1
EC [1]: >4 µM | EC [2]: >4 µM | EC [3]: >4 µM

COc1ccc(-c2c(-c3cc(OC)c4c(c3)OCO4)noc2N(C(C)=O)C(C)=O)cc1
EC [1]: 0.1 µM | EC [2]: 0.5 µM | EC [3]: 0.02 µM
